Assay results taken from ChEMBL document CHEMBL4316622, “Discovery of novel pyrazole derivatives as potential anticancer agents in MCL” (Bioorg Med Chem Lett, 2019).

Key:
[1] = system: Rec1; assay: Antiproliferative activity against human Rec1 cells assessed as inhibition of cell proliferation incubated for 72 hrs by Cell-titer-Glo luminescent cell viability assay; format: functional, cell-based; conditions: Rec1, 72 h
[2] = system: JeKo-1; assay: Antiproliferative activity against human JeKo1 cells assessed as inhibition of cell proliferation incubated for 72 hrs by Cell-titer-Glo luminescent cell viability assay; format: functional, cell-based; conditions: JeKo-1, 72 h
[3] = system: Maver1; assay: Antiproliferative activity against human Maver1 cells assessed as inhibition of cell proliferation incubated for 72 hrs by Cell-titer-Glo luminescent cell viability assay; format: functional, cell-based; conditions: Maver1, 72 h
[4] = system: Z-138; assay: Antiproliferative activity against human Z138 cells assessed as inhibition of cell proliferation incubated for 72 hrs by Cell-titer-Glo luminescent cell viability assay; format: functional, cell-based; conditions: Z-138, 72 h
[5] = Antiproliferative activity against human Mino cells assessed as inhibition of cell proliferation incubated for 72 hrs by Cell-titer-Glo luminescent cell viability assay; format: functional, cell-based
[6] = Half life in human liver microsomes further incubated of 5 to 60 mins in presence of NADPH regenerating system by LC/MS analysis
[7] = Stability in human liver microsomes assessed as compound remaining incubated of 60 mins in presence of NADPH regenerating system by LC/MS analysis
[8] = in vitro; conditions: human
Description: Intrinsic clearance in human liver microsomes further incubated of 5 to 60 mins in presence of NADPH regenerating system by LC/MS analysis

[9] = in vitro; conditions: human; remark: listed apart in the source
Description: Hepatic clearance in human liver microsomes further incubated of 5 to 60 mins in presence of NADPH regenerating system by LC/MS analysis

Structure (SMILES) | IC50 [1] [µM] | IC50 [2] [µM] | IC50 [3] [µM] | IC50 [4] [µM] | IC50 [5] [µM] | half-life ([6]; liver microsomes) [min] | remaining at 1 h ([7]; liver microsomes) [%] | microsomal CLint ([8]; liver microsomes) [µL/min/mg] | CLint scaled ([9]; liver microsomes) [mL/min/kg] | half-life ([6]; microsomes) [min] | microsomal CLint ([8]; microsomes) [µL/min/mg] | CLint scaled ([9]; microsomes) [mL/min/kg] | remaining at 1 h ([7]; microsomes) [%]
C=CC(=O)Nc1cccc(Cn2nc(-c3ccc(Oc4ccccc4)cc3)cc2C(=O)O)c1 | 33.1 | > 60 | 37.4 | 28.5 | 24.3 |  |  |  |  |  |  |  | 
O=C(CCl)Nc1ccc(Cn2nc(-c3ccc(Oc4ccccc4)cc3)cc2CO)cc1 | 0.4 | 0.4 | 0.4 | 0.4 | 0.4 |  |  |  |  |  |  |  | 
O=C(CCl)Nc1cccc(Cn2nc(-c3ccc(Oc4ccccc4)cc3)cc2CO)c1 | 0.4 | 0.4 | 0.4 | 0.4 | 0.4 | 10.6 | 1.5 | 131 | 118 |  |  |  | 
C=CC(=O)Nc1cccc(Cn2nc(-c3ccc(Oc4ccccc4)cc3)cc2CO)c1 | 1.3 | 5.2 | 6.7 | 6 | 3.3 |  |  |  |  |  |  |  | 
C=CC(=O)Nc1ccc(Cn2nc(-c3ccc(Oc4ccccc4)cc3)cc2C(=O)OCC)cc1 | 2.8 | 10.9 | 13.3 | 12.5 | 5.4 |  |  |  |  |  |  |  | 
C/C=C/C(=O)Nc1cccc(Cn2nc(-c3ccc(Oc4ccccc4)cc3)cc2C(=O)OCC)c1 | 7.8 | 16.7 | 14.2 | 8.9 | 16.5 |  |  |  |  |  |  |  | 
C/C=C/C(=O)Nc1ccc(Cn2nc(-c3ccc(Oc4ccccc4)cc3)cc2C(=O)O)cc1 | 23.6 | > 60 | > 60 | > 60 | 23.1 |  |  |  |  |  |  |  | 
C=CC(=O)Nc1ccc(Cn2nc(-c3ccc(Oc4ccccc4)cc3)cc2C(=O)O)cc1 | > 60 | > 60 | > 60 | > 60 | > 60 |  |  |  |  |  |  |  | 
C/C=C/C(=O)Nc1cccc(Cn2nc(-c3ccc(Oc4ccccc4)cc3)cc2CO)c1 | 3.4 | 22.6 | 8.1 | 5.7 | 4.9 |  |  |  |  |  |  |  | 
C/C=C/C(=O)Nc1cccc(Cn2nc(-c3ccc(Oc4ccccc4)cc3)cc2C(=O)O)c1 | 26 | > 60 | 31.6 | 24.1 | 23.3 |  |  |  |  |  |  |  | 
O=C(CCl)Nc1cccc(Cn2nc(-c3ccc(Oc4ccccc4)cc3)cc2C(=O)O)c1 | 7.1 | 6.3 | 4.7 | 9.1 | 11.7 |  |  |  |  |  |  |  | 
CCOC(=O)c1cc(-c2ccc(Oc3ccccc3)cc2)nn1Cc1ccc(NC(=O)CCl)cc1 | 0.4 | 0.4 | 0.4 | 0.4 | 0.6 |  |  |  |  |  |  |  | 
C/C=C/C(=O)Nc1ccc(Cn2nc(-c3ccc(Oc4ccccc4)cc3)cc2CO)cc1 | 12.2 | > 60 | 48.4 | 54.5 | 40.2 |  |  |  |  |  |  |  | 
C=CC(=O)Nc1cccc(Cn2nc(-c3ccc(Oc4ccccc4)cc3)cc2C(=O)OCC)c1 | 3.3 | 7.6 | 8.6 | 7.8 | 5.7 |  |  |  |  |  |  |  | 
C/C=C/C(=O)Nc1ccc(Cn2nc(-c3ccc(Oc4ccccc4)cc3)cc2C(=O)OCC)cc1 | 13.1 | 52.5 | > 60 | > 60 | 33.2 |  |  |  |  |  |  |  | 
CCOC(=O)c1cc(-c2ccc(Oc3ccccc3)cc2)nn1Cc1cccc(NC(=O)CCl)c1 | 0.4 | 0.4 | 0.5 | 0.4 | 1 |  |  |  |  |  |  |  | 
O=C(CCl)Nc1ccc(Cn2nc(-c3ccc(Oc4ccccc4)cc3)cc2C(=O)O)cc1 | 4 | 2.5 | 1.2 | 1.5 | 4.5 |  |  |  |  |  |  |  | 
C=CC(=O)Nc1ccc(Cn2nc(-c3ccc(Oc4ccccc4)cc3)cc2CO)cc1 | 3.5 | 8 | 7 | 6.8 | 5.2 |  |  |  |  |  |  |  | 
C/C=C/C(=O)N1CCCC(n2nc(-c3ccc(Oc4ccccc4)cc3)cc2C(=O)O)C1 (racemic) | 31 | > 60 | > 60 | > 60 | > 60 |  |  |  |  |  |  |  | 
C/C=C/C(=O)N1CCCC(n2nc(-c3ccc(Oc4ccccc4)cc3)cc2CO)C1 (racemic) | 27.2 | > 60 | > 60 | 51.1 | 45 |  |  |  |  |  |  |  | 
O=C(O)c1cc(-c2ccc(Oc3ccccc3)cc2)nn1C1CCCN(C(=O)CCl)C1 (racemic) | 2.2 | 3.6 | 0.4 | 2.8 | 2.5 |  |  |  |  |  |  |  | 
C=CC(=O)N1CCCC(n2nc(-c3ccc(Oc4ccccc4)cc3)cc2C(=O)O)C1 (racemic) | 50 | > 60 | > 60 | > 60 | > 60 |  |  |  |  |  |  |  | 
C=CC(=O)N1CCCC(n2nc(-c3ccc(Oc4ccccc4)cc3)cc2C(=O)OCC)C1 (racemic) | 13.8 | 21.2 | > 60 | 44 | 42.3 |  |  |  |  |  |  |  | 
C/C=C/C(=O)N1CCCC(n2nc(-c3ccc(Oc4ccccc4)cc3)cc2C(=O)OCC)C1 (racemic) | 5.1 | 26.5 | 19.6 | 19.1 | 11.7 |  |  |  |  |  |  |  | 
C=CC(=O)N1CCCC(n2nc(-c3ccc(Oc4ccccc4)cc3)cc2CO)C1 (racemic) | 5.4 | 11.9 | 30.5 | 14.6 | 15.4 |  |  |  |  |  |  |  | 
O=C(CCl)N1CCCC(n2nc(-c3ccc(Oc4ccccc4)cc3)cc2CO)C1 (racemic) | 0.4 | 7.8 | 1.1 | 0.4 | 6 |  |  |  |  |  |  |  | 
CCOC(=O)c1cc(-c2ccc(Oc3ccccc3)cc2)nn1C1CCCN(C(=O)CCl)C1 (racemic) | 0.4 | 0.8 | 1.2 | 1.3 | 1.2 |  |  |  |  |  |  |  | 
O=C(O)Cc1ccccc1Nc1c(Cl)cccc1Cl [DICLOFENAC] |  |  |  |  |  |  |  |  |  | 11.5 | 121 | 109 | 
C=CC(=O)N1CCC[C@@H](n2nc(-c3ccc(Oc4ccccc4)cc3)c3c(N)ncnc32)C1 [IBRUTINIB] | 1.1 | 1.5 | 10.4 | 11.3 | 10.1 |  |  |  |  |  |  |  | 
C[C@]12CC[C@H]3[C@@H](CCC4=CC(=O)CC[C@@]43C)[C@@H]1CC[C@@H]2O [TESTOSTERONE] |  |  |  |  |  |  |  |  |  |  |  |  | 4.2
